According to paper doi:10.1101/2024.08.19.608619, “Discovery of potent SARS-CoV-2 nsp3 macrodomain inhibitors uncovers lack of translation to cellular antiviral response” (bioRxiv, 2024):
≈ marks a conversion by molar mass, not a printed value. Where “and” joins values, the source holds several entries; their conditions need not be identical. Identical values can stand only once. Like-named read-outs stand apart in the source and are kept apart here.

What was measured:
SARS-CoV-2 = assay: Antiviral effect in iPSC-derived pneumocyte system; format: cell-based; conditions: iPSC pneumocytes SARS-CoV-2 antiviral effect; for perc_max_measured: maximum measured response of dose series; for perc_min_measured: minimum measured response of dose series
LogD = conditions: pH 7.4
[1] = test system: SARS-CoV-2, isolate USA-WA1/2020; assay: microbe, parasite or virus in culture; format: cell-based; conditions: HeLa-ACE2 SARS-CoV-2 antiviral effect without P-gp inhibitor; for perc_max_measured: maximum measured response of dose series; for EC50: read-out: ec50; for EC90: read-out: ec90
[2] = In vitro kinetic solubility
[3] = Hepatic microsomal stability, MLM; format: in vitro ADME
HeLa-ACE2 cells = conditions: for perc_max_measured: highest measured response of the dose series; for perc_min_measured: lowest measured response of the dose series
in vitro = assay: in vitro; design: Cytotoxicity in iPSC-derived pneumocytes, CC50; conditions: human, ipsc-derived pneumocytes, read-out: 50.0
Description: Finally, we consider the hypothesis that interferon response triggers ADP-ribosylation, thus profiling the compounds in enhanced and physiologically relevant interferon environments could reveal detectable antiviral effects. […] Furthermore, HeLa-ACE2 cells, and all cancerous cell lines, display defective innate immune response ([1]). As such, we also assess our compound in a primary-like iPSC-derived pneumocyte system (Figure 7C), showing likewise a lack of antiviral activity in this physiologically relevant innate immunity system.

[4] = Permeability Papp (AB) MDR1/MDCKII; conditions: In vitro MDR1-MDCKII permeability, mean; for papp_a_to_b_mean: A to B; for perc_recovery_a_to_b_mean: recovery A to B
iPSC pneumocytes = iPSC pneumocytes cytotoxicity; format: cell-based; conditions: for perc_max_measured: highest measured response of the dose series; for perc_min_measured: lowest measured response of the dose series
Description: Supplement media-1.zip/Cytotoxicity.csv, table | column: cc10; cc50; perc_min_measured; perc_max_measured

[5] = Hepatic microsomal stability, HLM; format: in vitro ADME, human; conditions: In vitro human liver microsomal stability; for perc_remaining_no_cofactor: no cofactor; for microsomal CLint: liver microsomes
SARS-CoV-2 nsp3-mac1 [6] = molecular target: T1, SARS-CoV-2 nsp3-mac1 (Severe acute respiratory syndrome coronavirus 2, UniProt P0DTD1); assay: biochemical; format: biochemical; conditions: for inhibition at 50 µM / inhibition at 100 µM: read-out: perc_inhibition_mean; for perc_inhibition_mean: SARS-CoV-2 nsp3 macrodomain TR-FRET single point, concentration 50.0 uM
SARS-CoV-2 nsp3-mac1 [7] = molecular target: T1, SARS-CoV-2 nsp3-mac1; assay: biochemical; conditions: for hill_slope: TR-FRET dose response curve fit; for perc_max_measured: highest measured response; for perc_min_measured: lowest measured response
SARS-CoV-2 nsp3-mac1 [8] = molecular target: T1, SARS-CoV-2 nsp3-mac1; assay: biochemical; design: SARS-CoV-2 nsp3 macrodomain TR-FRET single point, per cent inhibition, n=2
MDR1 = assay: Permeability Papp (AB) MDR1/MDCKII; conditions: dog, MDCK-MDR1, papp_a_to_b_mean, In vitro MDR1-MDCKII permeability, A to B, mean
[9] = In vitro kinetic solubility, ph 7.4
[10] = In vitro mouse liver microsomal stability
[11] = In vitro mouse liver microsomal stability, no cofactor
[12] = protocol HeLa-ACE2 cytotoxicity
[13] = IC50, nsp3-mac1 activity, Figures 1-3 and text
[14] = TR-FRET dose response, supplement, read-out: ic50
[15] = In vitro mouse liver microsomal stability; no cofactor
[16] = HTRF IC50, Figure 4A, racemic mixture
[17] = protocol iPSC pneumocytes cytotoxicity

CNC(=O)Cn1cc(-c2cc3c(N[C@H](c4ccc5c(c4)S(=O)(=O)CCC5)C(C)C)ncnc3[nH]2)cn1 (single isomer, unassigned) [ASAP-0011171]
EC50 (SARS-CoV-2): > 50 µM
EC90 (SARS-CoV-2): > 50 µM
perc_max_measured (SARS-CoV-2): 106.027%
perc_min_measured (SARS-CoV-2): 60.326%
logd (LogD; In vitro LogD): 2.4
perc_max_measured [1]: 108.143%
perc_min_measured ([1]; minimum measured response of dose series): 92.194%
EC50 [1]: > 20 µM
EC90 [1]: > 20 µM
solubility_mean [2, 9]: 323 µM (≈ 164 µg/mL)
clint [3, 10]: 111.0 µL/min/mg
perc_remaining [3, 10]: 16.0%
t_half [3, 10]: 15.0 min
perc_remaining_no_cofactor [3, 11]: 96.0%
CC50 (HeLa-ACE2 cells; [12]): > 20 µM
cc10 (HeLa-ACE2 cells; [12]): > 20.0 µM
perc_max_measured (HeLa-ACE2 cells; [12]): 102.722%
perc_min_measured (HeLa-ACE2 cells; [12]): 92.936%
CC50 (in vitro; ASAP-0008327-001=ASAP-0011171-001): > 50 µM
papp_a_to_b_mean [4]: 0.396 ×10⁻⁶ cm/s
perc_recovery_a_to_b_mean [4]: 65.1%
CC50 (iPSC pneumocytes): > 50 µM
cc10 (iPSC pneumocytes): > 50.0 µM
perc_max_measured (iPSC pneumocytes): 98.842%
perc_min_measured (iPSC pneumocytes): 89.646%
clint [5]: 92.0 µL/min/mg
perc_remaining [5]: 23.0%
t_half [5]: 18.1 min
perc_remaining_no_cofactor [5]: 101.0%

Cc1[nH]c2ncnc(NC(=O)C3CC=CC3)c2c1C [ASAP-0000025]
inhibition at 50 µM (SARS-CoV-2 nsp3-mac1 [6]): 73.1%
IC50 (SARS-CoV-2 nsp3-mac1 [7]; [13]): 42 µM

CC(C)C(Nc1ncnc2n[nH]cc12)c1cnn(C)c1 (centres unmarked) [ASAP-0000031]
inhibition at 50 µM (SARS-CoV-2 nsp3-mac1 [6]): 63.5%
IC50 (SARS-CoV-2 nsp3-mac1 [7]; [13]): 43 µM

O=C(Nc1ccccc1)Nc1ccc(C(=O)NC2c3cccc(O)c3CC2C(=O)O)cc1 (centres unmarked) [ASAP-0000132]
perc_inhibition_mean (SARS-CoV-2 nsp3-mac1 [6]): 99.903%
logd (LogD; In vitro LogD): 0.12
solubility_mean [2, 9]: 319 µM (≈ 138 µg/mL)
hill_slope (SARS-CoV-2 nsp3-mac1 [7]): 1.06
perc_max_measured (SARS-CoV-2 nsp3-mac1 [7]; TR-FRET dose response): 99.438%
perc_min_measured (SARS-CoV-2 nsp3-mac1 [7]; TR-FRET dose response): -1.931%
pic50 (SARS-CoV-2 nsp3-mac1 [7]; TR-FRET dose response, supplement): 5.991
IC50 (SARS-CoV-2 nsp3-mac1 [7]; [14]): 1.02 µM
clint [3, 10]: 2.0 µL/min/mg
perc_remaining [3, 10]: 111.0%
t_half [3, 10]: 1066.4 min
perc_remaining_no_cofactor [3, 15]: 99.0%
papp_a_to_b_mean [4]: 0.7 ×10⁻⁶ cm/s
perc_recovery_a_to_b_mean [4]: 91.0%
inhibition at 50 µM (SARS-CoV-2 nsp3-mac1 [8]; read-out: perc_inhibition_mean, batch_name=ASAP-0000132-001): 99.9%
clint [5]: 9.0 µL/min/mg
perc_remaining [5]: 123.0%
t_half [5]: 187.2 min
perc_remaining_no_cofactor [5]: 96.0%

O=C(NCc1cc2n(n1)CCCC2)c1cc2cncnc2[nH]1 [ASAP-0000134]
perc_inhibition_mean (SARS-CoV-2 nsp3-mac1 [6]): 4.173%
perc_max_measured (SARS-CoV-2 nsp3-mac1 [7]; TR-FRET dose response): 2.258%
perc_min_measured (SARS-CoV-2 nsp3-mac1 [7]; TR-FRET dose response): -11.392%
IC50 (SARS-CoV-2 nsp3-mac1 [7]; [14]): > 124 µM
inhibition at 50 µM (SARS-CoV-2 nsp3-mac1 [8]; read-out: perc_inhibition_mean, batch_name=ASAP-0000134-001): 4.17%

O=C(c1cccc(Br)c1)N1CCC(c2ccn3ncc(C(=O)N4CCCCC4)c3c2)CC1 [ASAP-0000191]
perc_inhibition_mean (SARS-CoV-2 nsp3-mac1 [6]): 32.136%
hill_slope (SARS-CoV-2 nsp3-mac1 [7]): 0.907
perc_max_measured (SARS-CoV-2 nsp3-mac1 [7]; TR-FRET dose response): 41.392%
perc_min_measured (SARS-CoV-2 nsp3-mac1 [7]; TR-FRET dose response): -0.981%
IC50 (SARS-CoV-2 nsp3-mac1 [7]; [14]): > 124 µM
inhibition at 50 µM (SARS-CoV-2 nsp3-mac1 [8]; read-out: perc_inhibition_mean, batch_name=ASAP-0000191-001): 32.1%

O=C(OCc1cccc(Cl)n1)c1ncnc2[nH]ccc12 [ASAP-0000193]
perc_inhibition_mean (SARS-CoV-2 nsp3-mac1 [6]): 11.426%
hill_slope (SARS-CoV-2 nsp3-mac1 [7]): 1.685
perc_max_measured (SARS-CoV-2 nsp3-mac1 [7]; TR-FRET dose response): 38.614%
perc_min_measured (SARS-CoV-2 nsp3-mac1 [7]; TR-FRET dose response): -4.676%
IC50 (SARS-CoV-2 nsp3-mac1 [7]; [14]): > 124 µM
inhibition at 50 µM (SARS-CoV-2 nsp3-mac1 [8]; read-out: perc_inhibition_mean, batch_name=ASAP-0000193-001): 11.4%

OC[C@@H](Nc1ncnc2[nH]c(I)cc12)c1ccccc1 [ASAP-0000197]
perc_inhibition_mean (SARS-CoV-2 nsp3-mac1 [6]): 26.134%
hill_slope (SARS-CoV-2 nsp3-mac1 [7]): 1.082
perc_max_measured (SARS-CoV-2 nsp3-mac1 [7]; TR-FRET dose response): 42.06%
perc_min_measured (SARS-CoV-2 nsp3-mac1 [7]; TR-FRET dose response): -3.652%
IC50 (SARS-CoV-2 nsp3-mac1 [7]; [14]): > 124 µM
inhibition at 50 µM (SARS-CoV-2 nsp3-mac1 [8]; read-out: perc_inhibition_mean, batch_name=ASAP-0000197-001): 26.1%

O=C(O)c1cscc1C(=O)N1CCC(c2ccn3ncc(C(=O)N4CCCCC4)c3c2)CC1 [ASAP-0000259]
inhibition at 50 µM (SARS-CoV-2 nsp3-mac1 [6]): 47.7%
inhibition at 100 µM (SARS-CoV-2 nsp3-mac1 [6]): 66.7%
IC50 (SARS-CoV-2 nsp3-mac1 [7]; [13]): 44 µM

Cc1[nH]c2ncnc(NC(=O)c3ccncc3Cl)c2c1C [ASAP-0000266]
inhibition at 50 µM (SARS-CoV-2 nsp3-mac1 [6]): 69.6%
inhibition at 100 µM (SARS-CoV-2 nsp3-mac1 [6]): 85.6%
IC50 (SARS-CoV-2 nsp3-mac1 [7]; [13]): 25 µM

CC(C)C(Nc1ncnc2[nH]ccc12)c1ccc2c(c1)NC(=O)CO2 (centres unmarked) [ASAP-0008431]
logd (LogD; pH 7.4, logd, In vitro LogD): 2.2
solubility_mean [2, 9]: 374 µM (≈ 126 µg/mL)
solubility ([2]; pH 7.4, solubility_mean, In vitro kinetic solubility, ph 7.4): 389 µM (≈ 131 µg/mL)
IC50 (SARS-CoV-2 nsp3-mac1 [7]; [16]): 0.39 µM
clint [3, 10]: 78.0 µL/min/mg
perc_remaining [3, 10]: 26.0% and 27.0%
t_half [3, 10]: 20.9 min and 21.4 min
perc_remaining_no_cofactor [3, 11]: 110.0%
perc_remaining_no_cofactor [3, 15]: 93.0%
microsomal CLint ([3]; mouse, liver microsomes, In vitro mouse liver microsomal stability): 80 µL/min/mg
perc_recovery_a_to_b_mean [4]: 86.0% and 98.9%
clint [5]: 31.0 µL/min/mg
perc_remaining [5]: 73.0% and 56.0%
t_half [5]: 79.0 min and 54.3 min
perc_remaining_no_cofactor [5]: 105.0% and 92.0%
microsomal CLint ([5]; human): 21 µL/min/mg

CC(C)[C@@H](Nc1ncnc2[nH]c(C(N)=O)cc12)c1ccc2c(c1)OCCO2 [ASAP-0008438]
EC50 (SARS-CoV-2): > 50 µM
EC90 (SARS-CoV-2): > 50 µM
perc_max_measured (SARS-CoV-2): 162.718%
perc_min_measured (SARS-CoV-2): 51.066%
perc_max_measured [1]: 108.483% and 95.443%
EC50 [1]: > 20 µM
EC90 [1]: > 20 µM
cc10 (HeLa-ACE2 cells): < 0.082 µM
cc50 (HeLa-ACE2 cells): < 0.082 µM
perc_max_measured (HeLa-ACE2 cells; [12]): 102.95% and 76.872%
perc_min_measured (HeLa-ACE2 cells; [12]): 63.007% and 58.0%
CC50 (in vitro; ASAP-0008327-001=ASAP-0008438-001): > 50 µM
CC50 (iPSC pneumocytes; [17]): > 50 µM
cc10 (iPSC pneumocytes; [17]): > 50.0 µM
perc_max_measured (iPSC pneumocytes; [17]): 107.376%
perc_min_measured (iPSC pneumocytes; [17]): 74.883%

CNC(=O)Cn1cc(-c2cc3c(NC(c4ccc5c(c4)OCCO5)C(C)C)ncnc3[nH]2)cn1 (centres unmarked) [ASAP-0008565]
logd (LogD): 2.9
solubility ([2]; pH 7.4): 289 µM (≈ 133 µg/mL)
IC50 (SARS-CoV-2 nsp3-mac1 [7]; [13]): 0.25 µM
increase in potency relative to the starting point (SARS-CoV-2 nsp3-mac1 [7]; relative to ASAP-000450): 10 x
perc_remaining [3, 10]: 46.0%
t_half [3, 10]: 35.7 min
perc_remaining_no_cofactor [3, 11]: 90.0%
microsomal CLint ([3]; liver microsomes; In vitro mouse liver microsomal stability): 47 µL/min/mg
Papp A→B (MDR1): 1.94 ×10⁻⁶ cm/s
perc_recovery_a_to_b_mean [4]: 94.1%
perc_remaining [5]: 14.0%
t_half [5]: 14.0 min
perc_remaining_no_cofactor [5]: 92.0%
microsomal CLint [5]: 119 µL/min/mg

CC(C)C(Nc1ncnc2[nH]c(C(=O)NC3CCN(C)C3)cc12)c1ccc2c(c1)OCCO2 (centres unmarked) [ASAP-0010747]
IC50 (SARS-CoV-2 nsp3-mac1 [7]; [16]): 0.46 µM
